# “And” between values parts separate entries of the source, which are not always exact repeats. Identical values can stand only once. Like-named read-outs stand apart in the source and are kept apart here.
# Tests used:
# CVB3 3C protease = biological target: T1, CVB3 3C protease (Coxsackievirus B3, UniProt P03313); experiment: FRET-based enzyme activity assay (warhead activation / inhibitor kinetics); format: biochemical, Coxsackie virus B3; settings: for kinact/KI: relative inactivation rate, slope of kobs against inhibitor concentration
# T1 construct: 3C protease of Coxsackie virus B3 consisting of 183 amino-acid residues; made in house; host or cells: E. coli BL21(DE3), plasmid pET-23a(+)
# Procedure: The activity of the protease was measured by hydrolysis of the FRET-substrate N-Dabcyl-KTLEALFQ↓GPPVYE(Edans)-NH2. The peptide was purchased from Biosyntan (Berlin, Germany). Samples were irradiated with light with a wavelength of 355 nm and the emitted light at 538 nm was measured in relative fluorescence units (RFUs). An amount of 100 pmol of cleaved substrate equals 5,000 RFU.
# Assay samples contained 10 μl of a 100 mM HEPES-NaOH buffer solution pH 7.5/1 mM EDTA, 10 μl enzyme solution (2 μM CVB3 3C^Pro), 10 μl of 10 μM substrate solution (both dissolved in the above buffer) and 1 μl Inhibitor and/or fragment dissolved in DMSO. For assay results of a dilution series of a mixture of 1 and 2 and comparison of reaction products in dependence of the assay solvent, see Supplementary Figs 1 and 2.
# The screening procedure consisted of the following steps: 10 μl 100 mM HEPES-NaOH buffer solution pH 7.5/1 mM EDTA was placed in a cavity of the 384-well plate (polystyrene, Corning 3544). Then 10 μl of enzyme solution (40 μM CVB3 3C protease in 100 mM HEPES-NaOH buffer solution, pH 7.5/1 mM EDTA) was added and the plate was shaken for 2 min at 1,400 r.p.m. Afterwards, 0.5 μl of a DMSO solution of the electrophilic probe and 0.5 μl of a DMSO solution of the nucleophile was added, followed by 10 μl of substrate solution (10 μM in 100 mM HEPES-NaOH buffer solution, pH 7.5/1 mM EDTA). The plate was shaken again for 2 min at 1,400 r.p.m. and the generated fluorescence signal was measured with a Safire II Fluorimeter from Tecan. The electrophilic probe 1 was used at a concentration of 400 μM for the screening, which lowered the protease activity by 10–20%. Eight-hundred fifty primary amines were tested at a concentration of 320 μM and fragment 2 amplified the inhibitory activity of 1 most potently. Positive control samples contained only DMSO instead of the probe or the nucleophile. Negative control samples contained no active enzyme. An interfering fluorescent effect has not been observed.
# When determining the inhibitory parameters of an inhibitor, the assay set-up was as mentioned but 1 μl DMSO solution of inhibitor was used instead of probe or nucleophile. Different concentrations of inhibitor were tested at least as duplicates and the pseudo-first-order association kinetics (kobs) were determined using GraphPad Prism. The slope of a plot of the different kobs values against the inhibitor concentration yielded kinact/KI.
# EV-B93 3C protease = EV-B93 3C protease (Enterovirus B93 (species Enterovirus B), UniProt Q5DSM6); experiment: In vitro proteolytic activity assay (HPLC, 3 h incubation); format: biochemical, human enterovirus B93; settings: for reduction of protease activity: protein inhibitor stoichiometries of 1:1 and 1:3; for IC50: fixed enzyme concentration, 3 h incubation; for inhibition of the enzyme: one inhibitor equivalent
# Procedure: (§1) For 12 and 14, the inhibitory activity decreased for EV-B93>PSV-1>ERBV-1>AiV-1>EV-D68>HRV-A49.
# (§2) A volume of 100 μl of reaction mixture containing 1.9 μM 3C protease, 25 μM substrate peptide, 5% DMSO, buffer (30 mM Tris pH 8.0, and 50 mM NaCl or 50 mM HEPES pH 7.4 and 50 mM NaCl) and (optionally) different concentrations of inhibitor was incubated in 37 °C during 3 h. The reaction was quenched by addition of 0.5% (final concentration) TFA. Samples were analysed by HPLC on SOURCE 15RPC ST 4.6/100 column using: 2–90% linear gradient of ACN in 0.1% TFA. The 3C protease activity in the absence of inhibitor was defined as 100%. The following peptides (GL Biochem, Shanghai, China) were dissolved in DMSO at a concentration of 5 mM and used for testing 3C proteases activity (Table 3).
# ERBV-1 3C protease = ERBV-1 3C protease (Equine rhinitis B virus 1, UniProt Q66776); experiment: as above; format: biochemical; settings: for reduction of protease activity: protein inhibitor stoichiometries of 1:1 and 1:3; for IC50: fixed enzyme concentration, 3 h incubation
# Procedure: as §1, §2
# PSV-1 3C protease = PSV-1 3C protease (Porcine sapelovirus 1, UniProt Q8JJT0); experiment: as above; format: biochemical; settings: for reduction of protease activity: protein inhibitor stoichiometries of 1:1 and 1:3; for IC50: fixed enzyme concentration, 3 h incubation
# Procedure: as §1, §2
# EV-D68 3C protease = biological target: T2, EV-D68 3C protease (Human enterovirus D68, UniProt Q68T42); experiment: as above; format: biochemical; settings: for reduction of protease activity: protein inhibitor stoichiometries of 1:1 and 1:3; for IC50: fixed enzyme concentration, 3 h incubation, read-out: IC50 HEV-D68
# T2 construct: a panel of six additional rhinoviral and enteroviral 3C proteases; purchased European Virus Archive
# Procedure: as §1, §2
# AiV-1 3C protease = biological target: T3, AiV-1 3C protease (Aichi virus, UniProt O91464); experiment: as above; format: biochemical, Aichi virus 1; settings: for reduction of protease activity: protein inhibitor stoichiometries of 1:1 and 1:3; for IC50: fixed enzyme concentration, 3 h incubation
# T3 construct: a panel of six additional rhinoviral and enteroviral 3C proteases; purchased European Virus Archive
# Procedure: as §1, §2
# HRV-A49 3C protease = HRV-A49 3C protease (Rhinovirus A49, UniProt A5GZE5); experiment: as above; format: biochemical, human rhinovirus A49; settings: for reduction of protease activity: protein inhibitor stoichiometries of 1:1 and 1:3; for IC50: fixed enzyme concentration, 3 h incubation
# Procedure: as §1, §2
# Human factor Xa = Human factor Xa (Homo sapiens, UniProt P00742); experiment: Side reactivity testing against different proteases; format: biochemical; settings: for IC50: 50 mM MOPS-NaOH pH 8.0 / 154 mM NaCl, 114 µM Boc-LGR-AMC as substrate; for activity against factor Xa, in words: at concentrations of 100 μM
# Procedure: (§3) The four enzymes cover a broad range of S1-preferences, namely for arginine/lysine (trypsin, factor Xa), hydrophobic residues (chymotrypsin) and aspartate (caspase-3).
# (§4) Supplementary Table 3. Side reactivity testing of selected compounds against different
# (§5) Cpd# Structure Trypsin1) Chymotrypsin2) Human factor Xa3) Human Caspase-34) […]
# 3) in 50 mM MOPS-NaOH pH 8.0 / 154 mM NaCl with 114 µM Boc-LGR-AMC as substrate; […]
# CBV 3C protease = biological target: T4, CBV 3C protease (Coxsackievirus B3, UniProt P03313); experiment: In vitro proteolytic activity assay (3 h incubation); format: biochemical, Coxsackie virus B3; settings: fixed enzyme concentration
# T4 construct: 3C protease of Coxsackie virus B3 consisting of 183 amino-acid residues; made in house; host or cells: E. coli BL21(DE3), plasmid pET-23a(+)
# Procedure: as §2
# Chymotrypsin = experiment: Side reactivity testing against different proteases; format: biochemical; settings: for IC50: 50 mM MOPS-NaOH pH 8.0 / 154 mM NaCl, 1.6 mM AF-AMC as substrate; for activity against chymotrypsin, in words: at concentrations of 100 μM
# Procedure: as §3, §4, §5
# 2) in 50 mM MOPS-NaOH pH 8.0 / 154 mM NaCl with 1.6 mM AF-AMC as substrate. […]
# Human Caspase-3 = biological target: T5, Human Caspase-3 (Homo sapiens, UniProt P42574); experiment: as above; format: biochemical; settings: for IC50: 50 mM HEPES-NaOH pH 7.5, 10 µM acetyl-DEVD-AMC as substrate; for activity against caspase-3, in words: at concentrations of 100 μM
# T5 sequence (P42574 29-175 limits assumed): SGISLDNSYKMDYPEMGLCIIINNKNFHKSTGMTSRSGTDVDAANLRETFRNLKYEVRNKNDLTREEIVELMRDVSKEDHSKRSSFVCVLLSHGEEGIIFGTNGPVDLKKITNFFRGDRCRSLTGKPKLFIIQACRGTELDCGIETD
# T5 sequence (P42574 176-277 limits assumed): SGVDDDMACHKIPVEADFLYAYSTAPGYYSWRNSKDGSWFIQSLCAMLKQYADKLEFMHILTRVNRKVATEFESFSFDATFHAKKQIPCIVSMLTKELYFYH
# Procedure: as §3, §4, §5
# 4) in 50 mM HEPES-NaOH pH 7.5 / 100 mM NaCl / 1 mM EDTA / 0.1% (w/v) CHAPS / 10% (v/v) glycerol /2 mM DTT
# with 10 µM acetyl-DEVD-AMC as substrate;
# Trypsin = experiment: as above; format: biochemical; settings: 50 mM MOPS-NaOH pH 8.0 / 154 mM NaCl, 57 µM Boc-LGR-AMC as substrate
# Procedure: as §3, §4
# Cpd# Structure Trypsin1) Chymotrypsin2) Human factor Xa3) Human Caspase-34)
# 1) in 50 mM MOPS-NaOH pH 8.0 / 154 mM NaCl with 57 µM tert. butyloxycarbonyl (Boc)-LGR-7-amino-4-
# methylcoumarin (AMC) as substrate; […]
# Human factor Xa, sequence (P00742 235-488 limits assumed): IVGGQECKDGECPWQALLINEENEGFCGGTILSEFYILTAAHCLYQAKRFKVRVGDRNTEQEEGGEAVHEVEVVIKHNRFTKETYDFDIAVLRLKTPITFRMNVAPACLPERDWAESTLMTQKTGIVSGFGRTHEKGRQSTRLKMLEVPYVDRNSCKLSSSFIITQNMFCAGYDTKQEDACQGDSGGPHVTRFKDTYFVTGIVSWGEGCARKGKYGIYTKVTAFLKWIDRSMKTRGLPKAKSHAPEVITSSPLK
# Human factor Xa, sequence (P00742 41-179 partner limits assumed): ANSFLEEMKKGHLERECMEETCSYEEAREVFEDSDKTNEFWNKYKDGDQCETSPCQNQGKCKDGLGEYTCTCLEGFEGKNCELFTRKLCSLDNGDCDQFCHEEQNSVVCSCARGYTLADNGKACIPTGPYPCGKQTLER
smiles,measurement,setting,value
CCOC(=O)/C=C/C(=O)Oc1cc(N)n(C2CCCCCC2)n1 [Compound 11],IC50,CVB3 3C protease; read-out: IC50,20.2 ± 1.6 µM
CCOC(=O)/C=C\C(=O)Nc1cc(=O)[nH]n1C1CCCCCC1 [Compound 12],reduction of protease activity,EV-B93 3C protease,strongly reduced the activity
same,reduction of protease activity,ERBV-1 3C protease,strongly reduced the activity
same,reduction of protease activity,PSV-1 3C protease,strongly reduced the activity
same,reduction of protease activity,EV-D68 3C protease,strongly reduced the activity
same,reduction of protease activity,AiV-1 3C protease,strongly reduced the activity
same,reduction of protease activity,HRV-A49 3C protease,strongly reduced the activity
same,kinact/KI,CVB3 3C protease,606 M⁻¹ s⁻¹ and 606.4 ± 24.9 M⁻¹ s⁻¹
CCOC(=O)/C=C\C(N)=O [Compound 13],kinact/KI,CVB3 3C protease,34 M⁻¹ s⁻¹ and 34.7 ± 1.5 M⁻¹ s⁻¹
CCNC(=O)/C=C\C(=O)Nc1cc(=O)[nH]n1C1CCCCCC1 [Compound 14],IC50,Human factor Xa,> 500 µM
same,"activity against factor Xa, in words",Human factor Xa,inactive
same,IC50,CBV 3C protease,13 µM
same,IC50,Chymotrypsin,> 500 µM
same,"activity against chymotrypsin, in words",Chymotrypsin,inactive
same,IC50,EV-B93 3C protease,4 µM
same,inhibition of the enzyme,EV-B93 3C protease,fully inhibited
same,IC50,Human Caspase-3,> 500 µM
same,"activity against caspase-3, in words",Human Caspase-3,inactive
same,IC50,Trypsin,> 500 µM
same,IC50,ERBV-1 3C protease,> 10 µM
same,IC50,PSV-1 3C protease,8 µM
same,IC50,EV-D68 3C protease,> 20 µM
same,IC50,AiV-1 3C protease,9 µM
same,IC50,HRV-A49 3C protease,> 20 µM
same,fold reduction of inactivation rate relative to ethyl ester 12,CVB3 3C protease,10 fold
same,kinact/KI,CVB3 3C protease,63.1 ± 3.1 M⁻¹ s⁻¹
same,kinact/KI,CVB3 3C protease; read-out: kinact/KI,63 M⁻¹ s⁻¹
CCNC(=O)/C=C\C(=O)NCC [Compound 15],"inhibition of the protease, in words",CVB3 3C protease,fully inactive
CCCC(CCC)n1[nH]c(=O)cc1NC(=O)/C=C\C(=O)OCC [Compound 17],kinact/KI,CVB3 3C protease; read-out: kinact/KI,217 ± 30.7 M⁻¹ s⁻¹
CCOC(=O)/C=C\C(=O)Nc1cc(=O)[nH][nH]1 [Compound 18],kinact/KI,CVB3 3C protease; read-out: kinact/KI,11.7 ± 0.5 M⁻¹ s⁻¹
O=C(/C=C/S(=O)(=O)c1ccccc1)Nc1cc(=O)[nH]n1C1CCCCCC1 [Compound 20],IC50,Human factor Xa,> 500 µM
same,"activity against factor Xa, in words",Human factor Xa,inactive
same,IC50,CBV 3C protease,0.4 µM
same,IC50,Chymotrypsin,> 500 µM
same,"activity against chymotrypsin, in words",Chymotrypsin,inactive
same,IC50,EV-B93 3C protease,0.2 µM
same,inhibition of the enzyme,EV-B93 3C protease,fully inhibited
same,reduction of protease activity,EV-B93 3C protease,strongly reduced the activity
same,IC50,Human Caspase-3,> 300 µM
same,"activity against caspase-3, in words",Human Caspase-3,inactive
same,IC50,Trypsin,> 500 µM
same,IC50,ERBV-1 3C protease,0.5 µM
same,reduction of protease activity,ERBV-1 3C protease,strongly reduced the activity
same,IC50,PSV-1 3C protease,0.3 µM
same,reduction of protease activity,PSV-1 3C protease,strongly reduced the activity
same,IC50,EV-D68 3C protease,1 µM
same,reduction of protease activity,EV-D68 3C protease,strongly reduced the activity
same,IC50,AiV-1 3C protease,0.5 µM
same,reduction of protease activity,AiV-1 3C protease,strongly reduced the activity
same,IC50,HRV-A49 3C protease,0.3 µM
same,reduction of protease activity,HRV-A49 3C protease,strongly reduced the activity
same,kinact/KI,CVB3 3C protease,"1,007 M^−1 s^−1 and 1,007.7±102.2 M^−1 s^−1"
same,kinact/KI,CVB3 3C protease; read-out: kinact/KI,1010 M⁻¹ s⁻¹
CC(C)n1[nH]c(=O)cc1NC(=O)/C=C/S(=O)(=O)c1ccccc1 [Compound 21],kinact/KI,CVB3 3C protease; read-out: kinact/KI,542 ± 6.3 M⁻¹ s⁻¹

# — article PMC5052702 (Nature Communications, 2016)
